These results are taken from patent US6251917A, “Benzamidoaldehydes and their use as cysteine protease inhibitors” (BASF Aktiengesellschaft, priority 1996, dated 2001).

Where only a bound is given, the exact number is not on record here.

The experiment deals with T1, Human μ-calpain (Homo sapiens, UniProt P07384).
T1 construct: Human μ-calpain is isolated from erythrocytes; from tissue; host or cells: human erythrocytes
T1 sequence (P07384 1-714): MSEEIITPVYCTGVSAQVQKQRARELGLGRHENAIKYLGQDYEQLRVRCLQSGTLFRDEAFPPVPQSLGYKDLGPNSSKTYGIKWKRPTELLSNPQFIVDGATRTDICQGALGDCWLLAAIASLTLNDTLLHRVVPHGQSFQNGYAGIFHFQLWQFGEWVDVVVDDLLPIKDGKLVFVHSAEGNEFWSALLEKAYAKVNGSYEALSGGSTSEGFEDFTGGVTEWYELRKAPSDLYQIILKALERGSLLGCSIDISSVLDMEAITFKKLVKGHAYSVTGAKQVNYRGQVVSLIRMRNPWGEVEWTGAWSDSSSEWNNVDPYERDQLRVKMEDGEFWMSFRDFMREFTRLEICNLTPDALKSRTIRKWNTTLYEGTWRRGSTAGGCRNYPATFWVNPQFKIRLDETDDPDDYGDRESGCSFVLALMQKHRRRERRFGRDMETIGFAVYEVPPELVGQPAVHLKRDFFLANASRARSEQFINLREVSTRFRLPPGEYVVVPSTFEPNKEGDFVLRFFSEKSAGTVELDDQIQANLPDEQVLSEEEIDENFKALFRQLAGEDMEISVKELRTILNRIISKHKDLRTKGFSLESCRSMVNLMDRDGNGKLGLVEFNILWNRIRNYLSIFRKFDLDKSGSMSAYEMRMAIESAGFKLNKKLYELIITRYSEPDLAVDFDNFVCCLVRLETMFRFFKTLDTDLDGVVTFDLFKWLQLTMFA
T1 sequence (P04632 1-268 partner): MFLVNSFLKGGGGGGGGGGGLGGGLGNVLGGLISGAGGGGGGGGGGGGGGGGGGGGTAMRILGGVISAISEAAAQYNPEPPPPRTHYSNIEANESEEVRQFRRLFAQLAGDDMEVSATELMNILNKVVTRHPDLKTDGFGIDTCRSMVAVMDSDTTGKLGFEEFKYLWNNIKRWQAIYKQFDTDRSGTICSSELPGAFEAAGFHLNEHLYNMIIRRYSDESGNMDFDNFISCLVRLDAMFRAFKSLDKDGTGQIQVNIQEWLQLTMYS
Nature of the experiment: Calpain I and II test (fluorogenic substrate Suc-Leu-Tyr-AMC). The format is biochemical. On the procedure: The inhibitory properties of calpain inhibitors were studied in a buffer containing 50 mM of Tris-HCl, pH 7.5; 0.1 M of NaCl; 1 mM of dithiotreithol; 0.11 mM of CaCl2, using the fluorogenic calpain substrate Suc-Leu-Tyr-AMC (25 mM dissolved in DMSO, Bachem/Switzerland) (Sasaki et al. J. Biol. Chem. 1984, Vol. 259, 12489-12494). Human μ-calpain is isolated from erythrocytes similarly to the methods of Croall and DeMartino (BBA 1984, Vol. 788, 348-355) and Graybill et al. (Bioorg. & Med. Lett. 1995, Vol. 5, 387-392). After several chromatographic steps (DEAE-Sepharose, Phenyl-Sepharose, Superdex 200 and Blue-Sepharose), the enzyme is obtained in a purity of <[sic] 95%, according to SDS-PAGE, Western blot analysis and N-terminal sequencing. The fluorescence of the cleavage product 7-amino-4-methylcoumarin (AMC) is monitored in a Spex-Fluorolog fluorimeter at λex =380 nm an λem =460 nm. Over a measured range of 60 min, the cleavage of the substrate is linear and the autocatalytic activity of calpain is low when the experiments are carried out at 12° C. (see Chatterjee et al. 1996, Bioorg. & Med. Chem. Lett., Vol 6, 1619-1622). […]
In a typical experiment, 10 μl of substrate (250 μm final) and then 10 μl of μ-calpain (2 μg/ml final, i.e. 18 nM) are added to a 1 ml cuvette containing buffer. The calpain-mediated cleavage of the substrate is measured for 15 to 20 min. […]

The term Ki denotes the equilibrium dissociation constant of an inhibitor or competing ligand from its target. A high value points to weaker binding. In the case of `O=C[C@H](Cc1ccccc1)NC(=O)c1ccccc1-c1ccccc1` [Example 30, (S)-2-Phenyl-N-(3-phenylpropan-1-al-2-yl)benzamide], the “effectiveness compared with N-(1-3-phenylpropan-1-al-2-yl)benzamide” value (comparison with literature compound (M. R. Angelastro et al., J. Med. Chem. 1990, 33, 11-13)) is “significantly more effective”. Also, the Ki (reversible inhibition, 12° C., pH 7.5) is below 500 nM.
